pIC50: −log10 of the molar value.
Assay: Inhibition Assay: To determine whether compounds were selective for TRPV3 inhibition over inhibition of other ion channel types, the human ERG (hERG), NaV1.2, and TRPV1 (hTRPV1) channels and the rat TRPV6 (rTRPV6) channel were also stably transfected and expressed or induced to express in mammalian cell lines. The methods for measuring currents from these channels are well-established and have been described in numerous publications (See, Weerapura et al., 2002, J Physiology 540: 15-27; Rush et al., 2005, J Physiology 564: 808-815; Caterina et al., 1997, Nature 389: 816-824; Hoenderhop et al., 2001, J Physiology 537: 747-761; Clapham et al., 2003, Pharmacol Rev 55: 591-596).

`Cc1cccc2c1N(C(=O)CSc1ccc(Cl)cn1)CCC2` gave a pIC50 of less than 4.52.

Reference: ChEMBL document CHEMBL3886344, “Compounds of modulating TRPV3 function” (2015)
